Data taken from ChEMBL document CHEMBL5052835, “Slc26a3 inhibitors and use thereof” (2021).
The source made the active and inactive calls. The rule behind the calls is not given here.

Assays:
[1] = biological target: T1, Chloride anion exchanger (Mus musculus) (UniProt Q9WVC8); test: Inhibition of mouse Slc26a3 transfected in rat FRT cells at 10 uM preincubated with forskolin, 8-Br-cGMP and PMA and measured by fluorescence assay relative to control; type: cell-based
T1 sequence (whole entry): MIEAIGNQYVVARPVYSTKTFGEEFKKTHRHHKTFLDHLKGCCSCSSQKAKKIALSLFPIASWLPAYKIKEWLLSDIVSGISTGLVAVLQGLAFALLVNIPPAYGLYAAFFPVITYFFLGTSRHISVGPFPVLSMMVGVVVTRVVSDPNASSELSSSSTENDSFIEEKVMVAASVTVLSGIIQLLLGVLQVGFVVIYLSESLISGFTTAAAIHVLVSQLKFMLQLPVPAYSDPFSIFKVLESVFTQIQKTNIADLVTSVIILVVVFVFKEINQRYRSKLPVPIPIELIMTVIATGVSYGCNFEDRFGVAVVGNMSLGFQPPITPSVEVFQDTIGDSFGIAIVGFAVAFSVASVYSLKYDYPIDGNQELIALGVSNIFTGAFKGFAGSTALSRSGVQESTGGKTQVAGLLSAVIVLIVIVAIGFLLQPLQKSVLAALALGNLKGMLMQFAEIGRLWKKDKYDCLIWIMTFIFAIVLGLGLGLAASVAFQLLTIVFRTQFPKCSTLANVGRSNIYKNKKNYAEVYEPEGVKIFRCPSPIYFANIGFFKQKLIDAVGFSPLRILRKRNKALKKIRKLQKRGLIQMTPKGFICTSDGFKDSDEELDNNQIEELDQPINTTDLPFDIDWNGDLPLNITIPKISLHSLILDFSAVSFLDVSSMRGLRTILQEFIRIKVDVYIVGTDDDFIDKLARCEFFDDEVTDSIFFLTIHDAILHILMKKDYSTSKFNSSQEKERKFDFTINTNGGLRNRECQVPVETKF

[2] = biological target: T2, Pendrin (Mus musculus) (UniProt Q9R155); test: Inhibition of mouse Slc26a4-mediated Cl-/ I- exchange at 10 uM measured by cell-based fluorescence assay
T2 sequence (whole entry): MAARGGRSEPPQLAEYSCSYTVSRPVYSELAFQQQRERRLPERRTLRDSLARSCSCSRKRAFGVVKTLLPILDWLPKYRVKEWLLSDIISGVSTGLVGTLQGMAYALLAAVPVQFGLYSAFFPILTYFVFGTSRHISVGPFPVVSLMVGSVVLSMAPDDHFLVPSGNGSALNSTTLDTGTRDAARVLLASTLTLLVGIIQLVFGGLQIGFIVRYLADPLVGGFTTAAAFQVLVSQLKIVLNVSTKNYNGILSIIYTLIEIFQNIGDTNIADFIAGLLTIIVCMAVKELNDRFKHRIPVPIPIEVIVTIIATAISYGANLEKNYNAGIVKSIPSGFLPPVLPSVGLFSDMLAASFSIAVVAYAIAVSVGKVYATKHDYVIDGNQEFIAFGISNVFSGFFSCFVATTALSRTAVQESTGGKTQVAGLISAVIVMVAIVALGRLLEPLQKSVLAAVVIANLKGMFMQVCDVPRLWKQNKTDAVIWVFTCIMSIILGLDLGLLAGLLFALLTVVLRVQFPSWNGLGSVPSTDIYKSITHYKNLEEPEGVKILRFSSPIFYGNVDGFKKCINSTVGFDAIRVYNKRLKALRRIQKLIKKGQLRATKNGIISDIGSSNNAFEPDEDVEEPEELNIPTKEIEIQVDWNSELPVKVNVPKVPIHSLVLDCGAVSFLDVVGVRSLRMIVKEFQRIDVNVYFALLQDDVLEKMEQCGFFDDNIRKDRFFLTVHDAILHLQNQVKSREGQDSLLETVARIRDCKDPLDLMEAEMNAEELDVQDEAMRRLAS

[3] = biological target: T3, Solute carrier family 26 member 6 (Mus musculus) (UniProt Q8CIW6); test: Inhibition of mouse Slc26a6-mediated Cl-/ I- exchange at 10 uM measured by cell-based fluorescence assay
T3 sequence (whole entry): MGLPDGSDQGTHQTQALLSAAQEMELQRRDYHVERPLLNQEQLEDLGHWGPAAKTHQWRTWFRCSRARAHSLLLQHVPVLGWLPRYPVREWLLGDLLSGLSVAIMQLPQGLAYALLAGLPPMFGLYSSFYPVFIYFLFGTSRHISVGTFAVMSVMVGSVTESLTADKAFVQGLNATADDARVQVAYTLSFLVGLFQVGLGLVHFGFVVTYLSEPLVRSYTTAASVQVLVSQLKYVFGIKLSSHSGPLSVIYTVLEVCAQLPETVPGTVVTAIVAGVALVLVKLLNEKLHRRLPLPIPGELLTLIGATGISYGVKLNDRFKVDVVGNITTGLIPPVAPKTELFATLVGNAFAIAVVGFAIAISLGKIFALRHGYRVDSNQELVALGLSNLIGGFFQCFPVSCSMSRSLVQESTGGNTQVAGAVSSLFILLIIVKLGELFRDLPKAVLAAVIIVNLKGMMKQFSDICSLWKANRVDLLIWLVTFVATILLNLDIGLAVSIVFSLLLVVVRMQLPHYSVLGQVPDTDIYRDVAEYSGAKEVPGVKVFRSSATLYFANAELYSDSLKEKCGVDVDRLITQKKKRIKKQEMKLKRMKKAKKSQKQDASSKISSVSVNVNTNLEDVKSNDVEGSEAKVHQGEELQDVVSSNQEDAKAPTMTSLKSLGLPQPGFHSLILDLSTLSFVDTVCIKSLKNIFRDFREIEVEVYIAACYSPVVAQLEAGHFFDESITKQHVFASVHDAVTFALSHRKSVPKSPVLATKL

[4] = organism: Mus musculus; test: Inhibition of mouse Slc26a9-mediated Cl-/ I- exchange at 10 uM measured by cell-based fluorescence assay
[5] = tested on: Colon; test: Inhibition of fluid absorption in distal colonic loop isolated from female CD-1 mouse at 10 uM assessed as effect on reduction in loop weight/length ratio; type: functional, tissue-based
[6] = tested on: Colon; test: Inhibition of fluid absorption in distal colonic loop isolated from female CD-1 mouse at 10 uM assessed as effect on reduction in loop weight/length ratio in presence of 10 microM tenapanor; type: functional, tissue-based
[7] = tested on: Mus musculus; test: In vivo inhibition of slc26a3 in loperamide-induced constipation model of cystic fibrosis mouse at 5 mg/kg, po assessed as reduction in pellet number; type: functional, organism-based
[8] = tested on: Mus musculus; test: Inhibition of oxalate absorption in sodium oxalate-induced acute hyperoxaluria mouse model at 5 mg/kg, po; type: functional, organism-based
[9] = tested on: Mus musculus; test: Inhibition of oxalate absorption in high oxalate and low calcium diet-induced oxalate nephropathy model of mouse at 5 mg/kg, po assessed as reduction in urine sediment; type: functional, organism-based
[10] = tested on: HBE; test: Inhibition of ENaC in human HBE cells at 10 uM pretreated with amiloride assessed as effect on short-circuit current responses; type: cell-based

In the case of `Cc1c(CC(=O)O)c(=O)oc2c(C)c(OCc3cccc(Br)c3)ccc12`, the inhibition [1] is reported as over 50%, the inhibition [2] is reported as “inactive” and the inhibition [3] is reported as “inactive”. For the same compound, the inhibition [4] was “inactive”, the inhibition [5] was “Active” and the inhibition [6] was “Active”. The inhibition [7] was “Active”, the inhibition [8] was “Active” and the inhibition [9] was “Active”. The inhibition [10] was “inactive”.
